Patent publication US20240166643A1, “IMIDAZO[1,2-A]PYRIDINE COMPOUNDS AND THEIR USE IN THERAPY” (Imperial College Innovations Limited, priority 2020, published 2024)
pEC50, pIC50: −log10 of the molar value. Like-named read-outs stand apart in the source and are kept apart here. Each block holds one molecule with its values, some of them ahead of it.

Assays:
[1] = molecular target: Plasmodium vivax (Pv) NMT (Plasmodium vivax (strain Salvador I), UniProt A5K1A2); experiment: biochemical
Human NMT1 (HsNMT1) = Human NMT1 (HsNMT1) (Homo sapiens, UniProt P30419); experiment: biochemical
[2] = tested on: Plasmodium falciparum strain NF54; experiment: SYBR Green assay, Plasmodium falciparum strain NF54; details: NF54, read-out: Pf EC50 strain NF54
BL-41 cells = experiment: Metabolic activity assay (MTS assay) in BL-41 cell line; type: cell-based; details: Homo sapiens, 72 h
[3] = tested on: Plasmodium falciparum 3D7; experiment: SYBR Green assay, Plasmodium falciparum strain 3D7; type: cell-based; details: P. falciparum strain 3D7, 96 h incubation, read-out: Pf EC50 strain 3D7
in vitro = details: male, Sprague-Dawley, rat, pooled cryopreserved rat hepatocytes, pH 7.4
[4] = Rat clearance and bioavailability (iv and oral dosing); type: in vivo; details: male, Sprague-Dawley, plasma; for half-life: read-out: Rat iv t1/2 (converted)
SU-DHL-10 cells = experiment: Cell cytotoxicity in SU-DHL-10 cell line (CellTiter-Glo); type: cell-based; details: Homo sapiens, SU-DHL10; CellTiter-Glo, 48 h; read-out: SU-DHL-10 EC50
DOHH-2 tumor cells = experiment: Mouse xenograft, subcutaneous DOHH-2 Lymphoma Model; type: in vivo; details: intraperitoneally 25 mg/kg twice a day for three days then four day no-dosing, cycle repeated three times, compared to vehicle
Method: Assay (i): Mouse Xenograft Protocol
The in vivo efficacy was assess in a subcutaneous xenograft DOHH-2 Lymphoma Model using Female 6-8 week old CB17/SCID Mice. […] The test compound administration started once the mean tumor size reached approximately 100-150 mm3. Compounds were administered either IP (vehicle 58% Na2HPO4 buffer (10 mM) (pH4.5)+40% PEG400+2% DMSO) or orally (vehicle Na2HPO4 buffer (10 mM) (pH 4.5)+0.2% tween 80). Tumor volumes were measured in two dimensions using a caliper, and the volume expressed in mm3 using the formula: V=(L×W×W)/2, where V is tumor volume, L is tumor length (the longest tumor dimension) and W is tumor width (the longest tumor dimension perpendicular to L).
Mice were dosed with Example 2 orally (50 mg/kg) once a day for 9 consecutive days (FIG. 5a), or Example 2 was dosed intraperitonally (25 mg/kg) in a cycle consisting of administration twice a day for three days followed by a four day no-dosing period (FIG. 5b). The cycle was repeated three times.
Mice were dosed with Example 129 intraperitonally (25 mg/kg) in a cycle consisting of administration twice a day for three days followed by a four day no-dosing period (Figure Sc). The cycle was repeated three times.
The protocol and any amendment(s) or procedures involving the care and use of animals in this study were reviewed and approved by the Institutional Animal Care and Use Committee (IACUC) of CrownBio prior to execution. During the study, the care and use of animals was conducted in accordance with the regulations of the Association for Assessment and Accreditation of Laboratory Animal Care (AAALAC).

P-493-6 cell line = experiment: CellTiter-Blue assay, P-493-6 with low, medium or high c-Myc; type: cell-based, human; details: 72 hours, different expression levels of c-Myc induced
From the text: Assay (d): CellTiter-Blue® Assay
Shep-ER-N-Myc cell line (cell type: human neuroblastoma) was sourced from Linda Valentijn, and firstly reported in Valentijn et. al., Cancer Res, 2005, 65(8), 3136-3145. SKNAS-ER-N-Myc cell line (cell type: human neuroblastoma) was sourced from Michael D. Hogarty, and firstly reported in Ushmorov et al., Oncogene, 2008, 27(24), 3424-3434. P-493-6 cell line was sourced from Chi Van Dang, and firstly reported in Pajic et. al., Int J Cancer, 2000, 87(6), 787-793. P-493-6 cell line is a non-transformed B cell line that can be genetically engineered to have either “low” levels of c-Myc, “medium” levels of c-Myc or “high” levels of c-Myc. The terms “low”, “medium” and “high” are descriptors commonly used in the art and will be readily understood to mean: • i) “low” levels of c-Myc—a level of MYC expression which represents non-proliferating normal cells (i.e. a level of MYC expression not sufficient to cause the cycling of the cells); • ii) “medium” levels of c-Myc—a level of MYC expression which represents normal proliferating cells; and • iii) “high” levels of c-Myc—a level of MYC expression which represents enforced/deregulated expression of c-Myc, typically observed in cancerous cells. […]

[5] = iv 3 mg/kg, administered as a single compound
[6] = oral 30 mg/kg, administered as a single compound
[7] = iv 1 mg/kg, cassette dosing of 4 compounds
[8] = oral 5 mg/kg, cassette dosing of 4 compounds

Chain of Human NMT1 (HsNMT1) (P30419 whole entry, looked up): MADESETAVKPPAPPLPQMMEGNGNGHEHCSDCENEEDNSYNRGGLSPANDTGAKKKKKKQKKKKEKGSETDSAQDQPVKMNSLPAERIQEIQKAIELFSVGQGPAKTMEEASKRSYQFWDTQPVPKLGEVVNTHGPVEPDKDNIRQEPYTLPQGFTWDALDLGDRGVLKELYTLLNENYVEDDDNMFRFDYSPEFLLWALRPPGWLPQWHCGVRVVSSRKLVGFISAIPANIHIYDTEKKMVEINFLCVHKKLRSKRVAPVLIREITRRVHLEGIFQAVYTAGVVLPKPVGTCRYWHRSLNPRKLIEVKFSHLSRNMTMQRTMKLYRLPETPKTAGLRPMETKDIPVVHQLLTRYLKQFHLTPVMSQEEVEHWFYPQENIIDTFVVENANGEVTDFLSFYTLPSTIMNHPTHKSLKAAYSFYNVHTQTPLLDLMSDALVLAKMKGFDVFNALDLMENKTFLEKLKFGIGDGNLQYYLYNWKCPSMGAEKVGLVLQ
Chain of Plasmodium vivax (Pv) NMT (A5K1A2 1-410): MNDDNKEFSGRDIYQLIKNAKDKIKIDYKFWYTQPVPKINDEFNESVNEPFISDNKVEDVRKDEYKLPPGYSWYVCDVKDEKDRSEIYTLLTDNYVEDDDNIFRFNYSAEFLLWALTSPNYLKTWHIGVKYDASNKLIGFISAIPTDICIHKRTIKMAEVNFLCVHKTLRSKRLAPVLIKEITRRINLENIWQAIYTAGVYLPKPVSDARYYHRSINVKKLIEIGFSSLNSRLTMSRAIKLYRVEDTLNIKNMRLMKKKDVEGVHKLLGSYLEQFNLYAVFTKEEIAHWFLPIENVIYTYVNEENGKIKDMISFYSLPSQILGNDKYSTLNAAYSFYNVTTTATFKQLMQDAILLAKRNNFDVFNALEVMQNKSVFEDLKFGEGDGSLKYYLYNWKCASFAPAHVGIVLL

Structure (SMILES): O=C(NCc1cnc2ccccn12)C1CN(c2nc(N3CC4CNC4C3)ncc2Cl)C1 (stereo not drawn) [Example 7]
- pIC50 [1]: 7.40
- pIC50 (Human NMT1 (HsNMT1)): 6.96
- pEC50 [2]: 5.49

Structure (SMILES): O=C(NCc1cnc2ccccn12)C1CN(c2nc(N3CC4CNC4C3)ncc2F)C1 (stereo not drawn) [Example 8]
- pIC50 [1]: 6.33
- pIC50 (Human NMT1 (HsNMT1)): 5.99
- pEC50 [2]: < 5.00

Structure (SMILES): CC(NC(=O)C1CN(c2nc(N3CCCNCC3)ncc2F)C1)c1cnc2ccccn12 (stereo not drawn) [Example 9]
- pIC50 [1]: 7.39
- pIC50 (Human NMT1 (HsNMT1)): 7.10
- pEC50 [2]: 5.68

Structure (SMILES): CC(NC(=O)C1CN(c2nc(N3CCCNCC3)ncc2Cl)C1)c1cnc2ccccn12 (stereo not drawn) [Example 10]
- pIC50 [1]: 8.20
- pEC50 (BL-41 cells): 6.62
- pIC50 (Human NMT1 (HsNMT1)): 8.10
- pEC50 [3]: 6.29
- half-life at 1 µM (in vitro): 2.03 h

Structure (SMILES): CC(C)(NC(=O)C1CN(c2nc(N3CCCNCC3)ncc2F)C1)c1cnc2ccccn12 [Example 11]
- pIC50 [1]: 7.85
- pEC50 (BL-41 cells): 6.05
- half-life [4, 5]: 4.4 h
- bioavailability [4, 6]: 0.35%
- pEC50 [3]: 7.29

Structure (SMILES): Cc1nc2ccccn2c1CNC(=O)C1CN(c2nc(N3CCCNCC3)ncc2F)C1 [Example 12]
- pIC50 [1]: 6.70
- pIC50 (Human NMT1 (HsNMT1)): 6.89
- pEC50 [2]: < 5.60

Structure (SMILES): Cc1nc2ccccn2c1CNC(=O)C1CN(c2nc(N3CC4CNC4C3)ncc2F)C1 (stereo not drawn) [Example 13]
- pIC50 [1]: 6.18
- pIC50 (Human NMT1 (HsNMT1)): 6.42
- pEC50 [2]: < 5.00

Structure (SMILES): O=C(NCc1cnc2ccccn12)C1CN(c2nc(N3CCNCC3)ncc2F)C1 [Example 16]
- pIC50 [1]: 7.17
- half-life [4, 5]: 5.9 h
- bioavailability [4, 6]: 0.5%
- half-life at 1 µM (in vitro): > 6.25 h
- pEC50 [2]: < 5.30

Structure (SMILES): CN(Cc1cnc2ccccn12)C(=O)C1CN(c2nc(N3CCCNCC3)ncc2Cl)C1 [Example 17]
- pIC50 [1]: 6.85
- pIC50 (Human NMT1 (HsNMT1)): 6.44
- pEC50 [2]: < 5.30

Structure (SMILES): Cc1nc2ccccn2c1CNC(=O)C1CN(c2nc(N3CCCNCC3)ncc2Cl)C1 [Example 18]
- pIC50 [1]: 8.06
- pIC50 (Human NMT1 (HsNMT1)): 7.70
- pEC50 [2]: 5.57

Structure (SMILES): COc1cnc(N2CCCNCC2)nc1N1CC(C(=O)NC(C)(C)c2cnc3ccccn23)C1 [Example 20]
- pIC50 [1]: 7.80
- pEC50 (BL-41 cells): 5.94
- pIC50 (Human NMT1 (HsNMT1)): 7.80
- pEC50 [3]: 6.82

Structure (SMILES): COc1cnc(N2CCCNCC2)nc1N1CC(C(=O)NC(C)c2c(C)nc3ccccn23)C1 (stereo not drawn) [Example 23]
- pIC50 [1]: 7.52
- pIC50 (Human NMT1 (HsNMT1)): 7.57
- pEC50 [2]: 6.47

Structure (SMILES): Cc1nc2ccccn2c1C(C)NC(=O)C1CN(c2nc(N3CCCNCC3)ncc2Cl)C1 (stereo not drawn) [Example 24]
- pIC50 [1]: 7.92
- pIC50 (Human NMT1 (HsNMT1)): 8.20
- pEC50 [2]: 6.74

Structure (SMILES): CC(NC(=O)C1CN(c2nc(N3CCNCC3)ncc2F)C1)c1cnc2ccccn12 (stereo not drawn) [Example 31]
- pIC50 [1]: 7.72
- pIC50 (Human NMT1 (HsNMT1)): 6.74
- pEC50 [2]: 5.89

Structure (SMILES): CN(c1ncc(Cl)c(N2CC(C(=O)NC(C)(C)c3cnc4ccccn34)C2)n1)C1CCNC1 (stereo not drawn) [Example 41]
- pIC50 [1]: 8.14
- pIC50 (Human NMT1 (HsNMT1)): 7.72
- pEC50 [2]: 7.35

Structure (SMILES): CC(C)(NC(=O)C1CN(c2nc(N3CCCNCC3)ncc2Cl)C1)c1cnc2ccccn12 [Example 51]
- pIC50 [1]: 8.28
- pEC50 (BL-41 cells): 7.10
- half-life [4, 5]: 9.1 h
- bioavailability [4, 6]: 0.07%
- pEC50 [3]: 7.55

Structure (SMILES): CN1CCCN(c2ncc(Cl)c(N3CC(C(=O)NCc4cnc5ccccn45)C3)n2)CC1 [Example 53]
- pIC50 [1]: 8.24
- half-life at 1 µM (in vitro): 0.4 h
- pEC50 [2]: 6.59

Structure (SMILES): CN1CCN(c2ncc(F)c(N3CC(C(=O)NC(C)(C)c4cnc5ccccn45)C3)n2)CC1 [Example 54]
- pIC50 [1]: 8.21
- pEC50 (BL-41 cells): 5.64
- half-life [4, 7]: 3.5 h
- bioavailability [4, 8]: 33%
- pEC50 [3]: 6.80
- half-life at 1 µM (in vitro): > 3 h

Structure (SMILES): CN1CCN(c2ncc(Cl)c(N3CC(C(=O)NC(C)(C)c4cnc5ccccn45)C3)n2)CC1 [Example 55]
- pIC50 [1]: 8.36
- pEC50 (BL-41 cells): 5.97
- half-life [4, 7]: 3.1 h
- bioavailability [4, 8]: 38%
- pEC50 [3]: 7.19
- half-life at 1 µM (in vitro): 2.33 h

Structure (SMILES): CN1CCCN(c2ncc(Cl)c(N3CC(C(=O)NC(C)(C)c4cnc5ccccn45)C3)n2)CC1 [Example 57]
- pIC50 [1]: 8.66
- pEC50 (BL-41 cells): 5.90
- half-life [4, 7]: 6.6 h
- bioavailability [4, 8]: 6%
- pIC50 (Human NMT1 (HsNMT1)): 8.46
- pEC50 (SU-DHL-10 cells): 6.69
- pEC50 [3]: 7.31
- half-life at 1 µM (in vitro): 2.52 h

- pIC50 (Human NMT1 (HsNMT1)): 8.70
Structure (SMILES): C[C@H]1CNCCN1c1ncc(Cl)c(N2CC(C(=O)NC(C)(C)c3cnc4ccccn34)C2)n1 [Example 129, (S)-1-(5-chloro-2-(2-methylpiperazin-1-yl)pyrimidin-4-yl)-N-(2-(imidazo[1,2-a]pyridin-3-yl)propan-2-yl)azetidine-3-carboxamide]
- pEC50 (SU-DHL-10 cells): 8.22
- tumour volume (DOHH-2 tumor cells): significant decrease in tumour volume

Structure (SMILES): C[C@H]1CN(C)CCN1c1ncc(Cl)c(N2CC(C(=O)NC(C)(C)c3cnc4ccccn34)C2)n1 [Example compound 2]
- metabolic viability of the P-493-6 cell line (P-493-6 cell line): clear MYC-dependent loss in metabolic viability
